Here are results for 60 molecules from patent publication US11492341B2, “ACLY inhibitors and uses thereof” (Nimbus Artemis, Inc., priority 2018, dated 2022).

For the assay, the target named is ACL (Homo sapiens (Human), UniProt P53396). Briefly: ADP-Glo Assay. Format: biochemical. The following applies: 3 nM ACL, 15 μM ATP, 3 μM CoA, 300 μM Citrate. The protocol: Example 28. ADP-Glo Assay
Chain of ACL (P53396 whole entry, species assumed): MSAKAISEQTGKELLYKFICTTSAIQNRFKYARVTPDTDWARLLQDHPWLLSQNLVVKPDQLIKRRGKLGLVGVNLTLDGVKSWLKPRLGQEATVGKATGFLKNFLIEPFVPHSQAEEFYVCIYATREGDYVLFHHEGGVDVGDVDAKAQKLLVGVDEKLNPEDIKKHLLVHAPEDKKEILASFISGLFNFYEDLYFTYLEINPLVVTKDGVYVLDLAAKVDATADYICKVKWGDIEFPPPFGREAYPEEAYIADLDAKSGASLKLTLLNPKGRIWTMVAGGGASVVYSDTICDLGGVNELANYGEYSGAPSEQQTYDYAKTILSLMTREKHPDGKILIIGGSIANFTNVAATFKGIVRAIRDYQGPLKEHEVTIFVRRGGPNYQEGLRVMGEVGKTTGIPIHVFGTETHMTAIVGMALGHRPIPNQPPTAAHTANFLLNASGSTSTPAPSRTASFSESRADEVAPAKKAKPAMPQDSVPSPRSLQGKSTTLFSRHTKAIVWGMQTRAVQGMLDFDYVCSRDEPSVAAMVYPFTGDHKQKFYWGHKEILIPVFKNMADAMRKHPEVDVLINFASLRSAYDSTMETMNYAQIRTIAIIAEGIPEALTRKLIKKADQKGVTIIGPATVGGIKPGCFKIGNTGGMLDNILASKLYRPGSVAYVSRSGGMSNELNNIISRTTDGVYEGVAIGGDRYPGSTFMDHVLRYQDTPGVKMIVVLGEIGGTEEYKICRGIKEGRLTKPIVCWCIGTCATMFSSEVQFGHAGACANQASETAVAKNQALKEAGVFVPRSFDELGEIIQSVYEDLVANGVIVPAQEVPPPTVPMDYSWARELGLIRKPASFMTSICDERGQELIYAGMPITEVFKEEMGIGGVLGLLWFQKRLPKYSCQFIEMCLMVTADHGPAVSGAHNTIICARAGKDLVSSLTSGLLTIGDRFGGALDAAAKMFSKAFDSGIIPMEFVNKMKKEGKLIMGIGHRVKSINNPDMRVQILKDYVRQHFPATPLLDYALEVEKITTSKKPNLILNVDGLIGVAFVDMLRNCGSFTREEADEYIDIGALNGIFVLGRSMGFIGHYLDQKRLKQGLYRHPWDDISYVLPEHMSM
Compounds of the present invention were evaluated in an ADP-GLO assay as follows: a) Dilute cpd 1:3 in succession in DMSO by hand for each cpds for 12 pts b) Add 0.1 μL diluted cpd solution to assay plate, each dose with 2 replicates c) Centrifuge 1000 RPM for 1 min d) Add 5 μL ACL working solution to 384-well assay plate, centrifuge 1000 RPM for 1 min e) Incubate at 25° C. for 15 min f) Add 5 μL substrate working solution to initiate reaction g) Final ACL reaction concentrations: 3 nM ACL, 15 μM ATP, 3 μM CoA, 300 μM Citrate, 0.01% Brij35, 4 mM DTT, 1% DMSO; h) Reference final conc: 30 uM starting Conc, 3× dilution, 11+0 points. Test cpd conc: 30/100 uM starting Conc, 3× dilution, 11+0 points. i) Incubate at 25° C. for 60 min j) Add 10 μL ADP Glo reagent, centrifuge 1000 RPM for 1 min k) Incubate at 25° C. for 40 min l) Add 20 μL kinase detection reagent, centrifuge 1000 RPM for 1 min m) Incubate at 25° C. for 40 min n) Read on Envision for US LUM as RLU
With `Cc1cn(S(=O)(=O)c2cc(Br)cc(Cl)c2O)c2ccc(Cl)cc12` [I-147], the half-inhibitory concentration (IC50) lay in the range of 0.5 to 20 µM.

`O=C(c1cn(S(=O)(=O)c2cc(Br)cc(Cl)c2O)c2ccc(Cl)cc12)N1CCC1` [I-163] returned an IC50 of 0.5 to 20 µM. The value for `COc1ccc(Cn2cncc(-c3cc4cc(Cl)ccc4n3S(=O)(=O)c3cc(F)cc(F)c3O)c2=O)cc1` [I-136, 5-(5-chloro-1-((3,5-difluoro-2-hydroxyphenyl)sulfonyl)-1H-indol-2-yl)-3-(4-methoxybenzyl)pyrimidin-4(3H)-one] was 0.5 to 20 µM; that for `COC(=O)c1cc2c(cc1Cl)cc(C)n2S(=O)(=O)c1cc(Br)cc(Cl)c1O` [I-148] was 0.5 to 20 µM; that for `O=S(=O)(c1cc(Br)cc(Cl)c1O)n1c(-c2cncnc2)cc2cc(Cl)ccc21` [I-24, 4-bromo-2-chloro-6-((5-chloro-2-(pyrimidin-5-yl)-1H-indol-1-yl)sulfonyl)phenol] was below 0.5 µM. For `O=c1[nH]cncc1-c1cc2cc(Cl)ccc2n1S(=O)(=O)c1cc(F)cc(F)c1O` [I-141, 5-(5-chloro-1-((3,5-difluoro-2-hydroxyphenyl)sulfonyl)-1H-indol-2-yl)pyrimidin-4(3H)-one] the value was 0.5 to 20 µM.

In the case of `O=S(=O)(c1cccc(F)c1O)n1c(-c2ccccc2)cc2cc(Cl)ccc21` [I-112], the IC50 lay within 0.5 to 20 µM. Take `N#Cc1ccc2c(c1)cc(-c1cncnc1)n2S(=O)(=O)c1cc(F)cc(F)c1O` [I-97]: the IC50 fell in the range of 0.5 to 20 µM. For `COc1ccc2c(c1)cc(-c1ccccc1)n2S(=O)(=O)c1cc(Br)cc(Cl)c1O` [I-31, 4-bromo-2-chloro-6-((5-methoxy-2-phenyl-1H-indol-1-yl)sulfonyl)phenol] the value was 0.5 to 20 µM; for `O=S(=O)(c1cc(Cl)cc(Cl)c1O)N1Cc2cnn(-c3ccccc3)c2C1` [I-7], 0.5 to 20 µM.

`Cc1ncc(-c2cc3cc(Cl)ccc3n2S(=O)(=O)c2cc(F)cc(F)c2O)cn1` [I-100] gave an IC50 of 0.5 to 20 µM. For `N#Cc1ccc2c(c1)cc(-c1cccc(F)c1)n2S(=O)(=O)c1cc(F)cc(F)c1O` [I-75] the value was 0.5 to 20 µM; for `O=C(O)c1cccc2c1cc(-c1ccccc1)n2S(=O)(=O)c1cc(Cl)cc(Br)c1` [I-68], 0.5 to 20 µM. For `O=S(=O)(c1cc(F)ccc1O)n1c(-c2ccccc2)cc2cc(Cl)ccc21` [I-76] the value was 0.5 to 20 µM; for `O=C(O)c1ccccc1-c1cc2cc(Cl)ccc2n1S(=O)(=O)c1cc(Br)cc(Cl)c1O` [I-27, 2-(1-((5-bromo-3-chloro-2-hydroxyphenyl)sulfonyl)-5-chloro-1H-indol-2-yl)benzoic acid], 0.5 to 20 µM; for `Cc1ncncc1-c1cc2cc(Cl)ccc2n1S(=O)(=O)c1cc(F)cc(F)c1O` [I-102], 0.5 to 20 µM. Molecule `Cc1cc2cc(Cl)ccc2n1S(=O)(=O)c1cc(-c2cncs2)cc(Cl)c1O` [I-156] yielded a half-inhibitory concentration (IC50) of 0.5 to 20 µM. Turning to `O=S(=O)(c1cc(F)cc(F)c1O)n1c(-c2cnccn2)cc2cc(Cl)ccc21` [I-105], the IC50 lay within 0.5 to 20 µM. For `O=S(=O)(c1cc(F)cc(F)c1O)n1c(-c2cncs2)cc2cc(F)ccc21` [I-86] the value was 0.5 to 20 µM. `O=C(O)c1ccc2c(c1)cc(-c1ccccc1)n2S(=O)(=O)c1cc(F)cc(F)c1` [I-87] had a concentration for half-maximal inhibition (IC50) of 0.5 to 20 µM. For `O=S(=O)(c1cc(Br)cc(Cl)c1O)n1c(-c2ccc(OC(F)(F)F)cc2)cc2ccncc21` [I-49, 4-bromo-2-chloro-6-((2-(4-(trifluoromethoxy)phenyl)-1H-pyrrolo[2,3-c]pyridin-1-yl)sulfonyl)phenol] the value was 0.5 to 20 µM; for `O=C(O)c1cccc(-c2cc3cc(Cl)ccc3n2S(=O)(=O)c2cc(Cl)cc(Cl)c2)c1` [I-84], 0.5 to 20 µM; for `O=C(O)Cc1cc2cc(Cl)ccc2n1S(=O)(=O)c1cc(Cl)cc(Cl)c1O` [I-88], 0.5 to 20 µM. In turn, `O=S(=O)(c1cc(F)cc(F)c1O)n1c(-c2ccc(OC(F)(F)F)cc2)cc2cc(Cl)ccc21` [I-51] showed a 50% inhibitory concentration (IC50) of 0.5 to 20 µM. For `O=S(=O)(c1cc(Cl)cc(Cl)c1O)N1CC2(CCOCC2)C1c1ccccc1` (stereo not drawn) [I-19] the value was 0.5 to 20 µM; for `O=S(=O)(c1cc(F)cc(F)c1O)n1c(-c2cncnc2)cc2cc(Cl)ccc21` [I-90], 0.5 to 20 µM. The value for `C[C@@H]1CN(S(=O)(=O)c2cc(Cl)cc(Cl)c2O)C[C@H](C)O1` [I-14] was 0.5 to 20 µM; that for `Cc1c(-c2ccccc2)c2cc(Cl)ccc2n1S(=O)(=O)c1cc(Br)cc(Cl)c1O` [I-46] was 0.5 to 20 µM; that for `CC(C)(O)c1cc2cc(Cl)ccc2n1S(=O)(=O)c1cc(Br)cc(Cl)c1O` [I-39] was 0.5 to 20 µM.

`O=S(=O)(c1cc(F)cc(F)c1O)n1c(-c2cc3ccccc3s2)cc2cc(Cl)ccc21` [I-143, 2-((2-(benzo[b]thiophen-2-yl)-5-chloro-1H-indol-1-yl)sulfonyl)-4,6-difluorophenol] displayed a half-inhibitory concentration (IC50) of 0.5 to 20 µM. The value for `Cc1ccc2c(c1)cc(-c1cncnc1)n2S(=O)(=O)c1cc(F)cc(F)c1O` [I-92] was 0.5 to 20 µM; that for `COC(=O)c1ccc2cc(-c3ccccc3)n(S(=O)(=O)c3cc(Br)cc(Cl)c3O)c2c1` [I-70] was 0.5 to 20 µM; that for `COC(=O)c1cc(Cl)c(O)c(S(=O)(=O)N2CCc3ccc(-c4ccccc4)cc32)c1` [I-2] was 0.5 to 20 µM. The value for `O=S(=O)(c1cc(Cl)cc(Cl)c1O)n1c(-c2ccc(OC(F)(F)F)cc2)cc2cc(Cl)ccc21` [I-32, 2,4-dichloro-6-((5-chloro-2-(4-(trifluoromethoxy)phenyl)-1H-indol-1-yl)sulfonyl)phenol] was 0.5 to 20 µM. For `COc1ncc(-c2cc3cc(Cl)ccc3n2S(=O)(=O)c2cc(F)cc(F)c2O)cn1` [I-138] the value was 0.5 to 20 µM; for `O=S(=O)(c1cc(Br)cc(Cl)c1O)n1c(-c2cnc(C(F)(F)F)nc2)cc2cc(Cl)ccc21` [I-152], 0.5 to 20 µM. Turning to `O=S(=O)(c1cc(F)cc(F)c1O)n1c(-c2cnc(O)nc2)cc2cc(Cl)ccc21` [I-140], the IC50 was 0.5 to 20 µM. For `O=S(=O)(c1cc(Cl)cc(Cl)c1O)N1CCOC(COc2ccccc2)C1` (stereo not drawn) [I-8] the value was 0.5 to 20 µM; for `CN(C)C(=O)c1ccc(-c2cc3cc(Cl)ccc3n2S(=O)(=O)c2cc(Cl)cc(Cl)c2O)cc1` [I-60], 0.5 to 20 µM; for `O=S(=O)(c1cc(Br)cc(Cl)c1O)N1CCc2ccc(-c3ccccc3)cc21` [I-3, 4-bromo-2-chloro-6-((6-phenylindolin-1-yl)sulfonyl)phenol], 0.5 to 20 µM. For `O=C(O)c1ccc(-c2cc3cc(Cl)ccc3n2S(=O)(=O)c2cc(Br)cc(Cl)c2O)cc1` [I-45, 4-(1-((5-bromo-3-chloro-2-hydroxyphenyl)sulfonyl)-5-chloro-1H-indol-2-yl)benzoic acid] the value was 0.5 to 20 µM; for `O=C(c1ccc2cc(-c3ccccc3)n(S(=O)(=O)c3cc(Br)cc(Cl)c3O)c2c1)N1CCC1` [I-145, Azetidin-1-yl(1-((5-bromo-3-chloro-2-hydroxyphenyl)sulfonyl)-2-phenyl-1H-indol-6-yl)methanone], 0.5 to 20 µM.

In turn, `O=S(=O)(c1cccc(Cl)c1O)n1c(-c2ccccc2)cc2cc(Cl)ccc21` [I-63] showed an IC50 of 0.5 to 20 µM. For `O=S(=O)(c1cc(Cl)cc(Cl)c1O)N1CC2(CCOCC2)c2ccccc21` [I-6] the value was 0.5 to 20 µM; for `CN(C)C(=O)c1ccc(-c2cc3cc(Cl)ccc3n2S(=O)(=O)c2cc(Br)cc(Cl)c2O)cc1` [I-50, 4-(1-((5-bromo-3-chloro-2-hydroxyphenyl)sulfonyl)-5-chloro-1H-indol-2-yl)-N,N-dimethylbenzamide], 0.5 to 20 µM. The value for `Cc1ccc(-c2cc3cc(Cl)ccc3n2S(=O)(=O)c2cc(F)cc(F)c2O)nn1` [I-96] was 0.5 to 20 µM. The value for `Cc1ccccc1-c1cc2cc(Cl)ccc2n1S(=O)(=O)c1cc(Br)cc(Cl)c1O` [I-35] was 0.5 to 20 µM; that for `Cc1cnc(-c2cc3cc(Cl)ccc3n2S(=O)(=O)c2cc(F)cc(F)c2O)cn1` [I-127] was 0.5 to 20 µM; that for `O=S(=O)(c1cc(F)cc(F)c1O)n1c(-c2ccnnc2)cc2cc(Cl)ccc21` [I-103] was 0.5 to 20 µM. `Cc1cncc(-c2cc3cc(Cl)ccc3n2S(=O)(=O)c2cc(F)cc(F)c2O)n1` [I-101] showed an IC50 of 0.5 to 20 µM. Take `CN(C)C(=O)c1cc2cc(Cl)ccc2n1S(=O)(=O)c1cc(Cl)cc(Cl)c1O` [I-111]: the half-inhibitory concentration (IC50) lay within 0.5 to 20 µM. `O=S(=O)(c1cc(Br)cc(Cl)c1O)n1c(-c2cccnc2)cc2cc(Cl)ccc21` [I-34] returned an IC50 below 0.5 µM. The value for `N#Cc1ccc2c(c1)cc(C1CC1)n2S(=O)(=O)c1cc(F)cc(F)c1O` [I-82] was 0.5 to 20 µM; that for `COc1c(F)cc2cc(C)n(S(=O)(=O)c3cc(Br)cc(Cl)c3O)c2c1F` [I-165] was 0.5 to 20 µM; that for `CN(C)C(=O)c1ccc2c(c1)cc(-c1ccccc1)n2S(=O)(=O)c1cc(Br)cc(Cl)c1O` [I-56] was 0.5 to 20 µM. `O=C(c1cc2cc(Cl)ccc2n1S(=O)(=O)c1cc(Br)cc(Cl)c1O)N1CCC1` [I-162] returned a concentration for half-maximal inhibition (IC50) of 0.5 to 20 µM.

Take `COC(=O)c1c(-c2ccccc2)c2cc(Cl)ccc2n1S(=O)(=O)c1cc(Cl)cc(Cl)c1` [I-120]: the IC50 is at least 20 µM. For `Cc1cc2cc(Cl)ccc2n1S(=O)(=O)c1cc(-c2ccccc2)cc(Cl)c1O` [I-142] the value was 0.5 to 20 µM. In turn, `O=S(=O)(c1cncc(O)c1)n1c(-c2ccccc2)cc2cc(Cl)ccc21` [I-119] yielded a half-inhibitory concentration (IC50) of at least 20 µM. For `O=C(O)c1sccc1S(=O)(=O)n1c(-c2ccccc2)cc2cc(Cl)ccc21` [I-71] the value was 0.5 to 20 µM.
